B1: CNTF: ciliary neurotrophic factor (protein, UniProt P26441 1-200, looked up)
Ciliary neurotrophic factor: MAFTEHSPLTPHRRDLCSRSIWLARKIRSDLTALTESYVKHQGLNKNINLDSADGMPVASTDQWSELTEAERLQENLQAYRTFHVLLARLLEDQQVHFTPTEGDFHQAIHTLLLQVAAFAYQIEELMILLEYKIPRNEADGMPINVGDGGLFEKKLWGLKVLQELSQWTVRSIHDLRFISSHQTGIPARGSHYIANNKKM
B2: FGF7: fibroblast growth factor-7, keratinocyte growth factor (protein, UniProt P21781 32-194, looked up)
Fibroblast growth factor 7: CNDMTPEQMATNVNCSSPERHTRSYDYMEGGDIRVRRLFCRTQWYLRIDKRGKVKGTQEMKNNYNIMEIRTVAVGIVAIKGVESEFYLAMNKEGKLYAKKECNEDCNFKELILENHYNTYASAKWTHNGGEMFVALNQKGIPVRGKKTKKEQKTAHFLPMAIT
B3: BDNF: brain-derived neurotrophic factor (protein, UniProt P23560 19-247, looked up)
Neurotrophic factor BDNF …: APMKEANIRGQGGLAYPGVRTHGTLESVNGPKAGSRGLTSLADTFEHVIEELLDEDQKVRPNEENNKDADLYTSRVMLSSQVPLEPPLLFLLEEYKNYLDAANMSMRVRRHSDPARRGELSVCDSISEWVTAADKKTAVDMSGGTVTVLEKVPVSKGQLKQYFYETKCNPMGYTKEGCRGIDKRHWNSQCRTTQSYVRALTMDSKKRIGWRFIRIDTSCVCTLTIKRGR
B4: FGF10: fibroblast growth factor-10, keratinocyte growth factor-2 (protein, UniProt O15520 38-208, looked up)
Fibroblast growth factor 10: QALGQDMVSPEATNSSSSSFSSPSSAGRHVRSYNHLQGDVRWRKLFSFTKYFLKIEKNGKVSGTKKENCPYSILEITSVEIGVVAVKAINSNYYLAMNKKGKLYGSKEFNNDCKLKERIEENGYNTYASFNWQHNGRQMYVALNGKGAPRRGQKTRRKNTSAHFLPMVVHS
B5: FGF13: fibroblast growth factor-13 (protein, UniProt Q92913 1-245, looked up)
Fibroblast growth factor 13: MAAAIASSLIRQKRQAREREKSNACKCVSSPSKGKTSCDKNKLNVFSRVKLFGSKKRRRRRPEPQLKGIVTKLYSRQGYHLQLQADGTIDGTKDEDSTYTLFNLIPVGLRVVAIQGVQTKLYLAMNSEGYLYTSELFTPECKFKESVFENYYVTYSSMIYRQQQSGRGWYLGLNKEGEIMKGNHVKKNKPAAHFLPKPLKVAMYKEPSLHDLTEFSRSGSGTPTKSRSVSGVLNGGKSMSHNEST

Structures can show the parent of a compound that is named as a salt.

In one experiment the test system is CD31-cells (BAT progenitor cells isolated from human skeletal muscle). Kind of experiment: Quantification of UCP1 and PPARγ2 mRNA (normalized to cyclophilin A) by multiplexed TaqMan real-time PCR to quantify differentiation into brown adipocytes. It counts as cell-based.
Conditions: not given
From the text: A robust method, previously disclosed in WO2013071063 and incorporated herein by reference, was used for detection of CD31-cell differentiation into brown adipocytes by simultaneously quantifying mRNA species corresponding to the brown adipocyte marker UCP1, the adipocyte marker PPARγ2, and the “housekeeping” gene cyclophilin A which was used as the internal control.
This method permits analysis of a large number of samples to identify agents that enhance the differentiation of CD31-cells into brown adipocytes. When differentiated into brown adipocytes CD31-cells express much higher levels of UCP1 and PPARγ2 mRNA for a given level of cyclophilin A. UCP1 and PPARγ2 mRNA levels normalized to cyclophilin A mRNA levels give an indication of the level of differentiation of the CD31-cells into brown adipocytes, independent of the total number of cells in the sample.
Quantification of UCP1, PPARγ2 and cyclophilin A mRNA by multiplexed TaqMan real-time PCR was thus used to quantify differentiation of the CD31-cells into brown adipocytes.
Cells were seeded at 10,000 per cm^2 in 0.2% gelatin coated plates (48-well tissue culture, Chemglass #CLS-3500-048), cultured until confluency (2-4 days) at 37° C. in Endothelial cell growth medium-2 (EGM2) (BulletKit growth medium, Lonza #CC-3162) and until differentiation (10-16 more days). After 2 or 3 days in EGM2 medium the cells were induced to differentiate by replacing the medium with an adipogenic medium, which is a modification of the adipogenic medium described by Rodriguez et al. and may or may not contain a differentiation inducing agent (e.g., PPARγ agonist). […] If rosiglitazone is used as a differentiation-inducing agent, it can be supplied at 1 μM or any other concentration sufficient to induce differentiation of BAT progenitor cells into adipocytes.
Total RNA was prepared from cells using PureLink RNA Isolation Kit (Invitrogen #12183-016) First strand cDNA were synthesized using the High Capacity cDNA Reverse Transcription kit (Applied Biosystems, Foster City, Calif.) and random primers.
Quantitative real-time PCR was performed using an Applied Biosystems StepOnePlus™ instrument, TaqMan Gene Expression Master Mix (Applied Biosystems #4369016), and custom TaqMan gene expression probes and primers for human uncoupling protein-1 “UCP1” (GenBank NM_021833) and for human peptidylprolyl isomerase A “cyclophilin A” (GenBank NM_021130).
Cyclophilin A was used as a control to account for any variations due to the efficiency of reverse transcription. Arbitrary units were determined by normalizing target mRNA levels to cyclophilin A mRNA levels (based on Cts).
Background: Real-time PCR tracks product formation cycle by cycle.
On to `CCCCC[C@H](O)/C=C/[C@@H]1[C@@H](C/C=C\CCCC(=O)O)[C@H](O)C[C@H]1O` [9β,11α-prostaglandin F2], for which the “differentiation of BAT progenitor cells into brown adipocytes and/or expression of UCP1, PPARγ2 mRNA” value (“differentiation … PPARγ2 mRNA” below) is reported as “promote the differentiation of BAT progenitor cells into brown adipocytes and/or induce the expression of UCP1”.

For `O=C1NC(c2cccc([N+](=O)[O-])c2)=CCN1c1ccccc1O` [icilin], the “differentiation … PPARγ2 mRNA” value is given as “promote the differentiation of BAT progenitor cells into brown adipocytes and/or induce the expression of UCP1”. Still for that read-out and setting: the entry for `CC1CCC(C(C)C)C(O)C1` (stereo not shown) [menthol] is “promote the differentiation of BAT progenitor cells into brown adipocytes and/or induce the expression of UCP1”.

On to `CC1(C)CC[C@]2(C(=O)O)CC[C@]3(C)C(=CC[C@@H]4[C@@]5(C)CC[C@H](O)C(C)(C)[C@@H]5CC[C@]43C)[C@@H]2C1` [oleanolic acid], for which the “differentiation … PPARγ2 mRNA” value is “promote the differentiation of BAT progenitor cells into brown adipocytes and/or induce the expression of UCP1”. Still for that read-out and setting: for `COC(=O)N(C)c1c(N)nc(-c2nn(Cc3ccccc3F)c3ncccc23)nc1N` [riociguat] the value was “promote the differentiation of BAT progenitor cells into brown adipocytes and/or induce the expression of UCP1”. On the same count and under the same terms, for `COc1ccc(C2CNC(=O)C2)cc1OC1CCCC1` (stereo not shown) [rolipram] the value was “promote the differentiation of BAT progenitor cells into brown adipocytes and/or induce the expression of UCP1”.

On to `CN/C(=N\c1ccc(C2=NNC(=O)CC2C)cc1)NC#N` (stereo not shown) [siguazodan], for which the “differentiation … PPARγ2 mRNA” value is given as “promote the differentiation of BAT progenitor cells into brown adipocytes and/or induce the expression of UCP1”.

As for BNP: b-type natriuretic peptide, the “differentiation … PPARγ2 mRNA” value is listed as “promote the differentiation of BAT progenitor cells into brown adipocytes and/or induce the expression of UCP1”. Same read-out and setting: the entry for “PACAP Propeptide of 55 aa (aa 25-79): peptide derived from the Pituitary adenylate cyclase-activating polypeptide (PACAP, ADCYAP1, UniProt P18509) gene (SPAAAGLRFPGIRPEEEAYGEDGNPLPDFDGSEPPGAGSPASAPRAAAAWYRPAG; UniProt P18509 25-79, looked up, fragment)” is “promote the differentiation of BAT progenitor cells into brown adipocytes and/or induce the expression of UCP1”; for bombesin it is “promote the differentiation of BAT progenitor cells into brown adipocytes and/or induce the expression of UCP1”; for “interleukin-6 (IL-6): Interleukin-6, UniProt P05231” it is “promote the differentiation of BAT progenitor cells into brown adipocytes and/or induce the expression of UCP1”.

In the case of orexin B: orexin B, the “differentiation … PPARγ2 mRNA” value is “promote the differentiation of BAT progenitor cells into brown adipocytes and/or induce the expression of UCP1”. With B1, the “differentiation … PPARγ2 mRNA” value was “promote the differentiation of BAT progenitor cells into brown adipocytes and/or induce the expression of UCP1”. On the same count and under the same terms, for B2 the value was “promote the differentiation of BAT progenitor cells into brown adipocytes and/or induce the expression of UCP1”. For B3, the “differentiation … PPARγ2 mRNA” value is given as “promote the differentiation of BAT progenitor cells into brown adipocytes and/or induce the expression of UCP1”.

Turning to B4, the “differentiation … PPARγ2 mRNA” value is “promote the differentiation of BAT progenitor cells into brown adipocytes and/or induce the expression of UCP1”. Consider B5, for which the “differentiation … PPARγ2 mRNA” value is on record as “promote the differentiation of BAT progenitor cells into brown adipocytes and/or induce the expression of UCP1”.

Another experiment concerns CD31-cells (brown adipocyte progenitors). As to the kind of experiment: Quantification of UCP1 protein by immunohistochemistry (IHC). Format: cell-based, human. The settings on record: total intensity of UCP1 signal normalized to cell number. As to the method: Differentiation of brown adipocyte progenitors into brown adipocytes can be detected through quantification of UCP1 protein by immunohistochemistry (IHC).
Culturing and differentiation of CD31-cells into brown adipocytes were performed using adipogenic differentiation medium lacking (Minimal Differentiation Medium, MDM) or containing 1 μM rosiglitazone (Reference Differentiation Medium, RDM). After 15 days of differentiation cells were fixed with 4% Paraformaldehyde PBS pH 7.4, and incubated with a UCP1 antibody (Abcam ab23841) and Alexafluor 488 goat anti-rabbit antibody to quantify relative UCP1 levels (green) according to standard protocols. Prior to fixation of cells, nuclei were labeled with 5 μM DAPI (blue) for 10 minutes. Each treatment condition was evaluated in triplicate in a 96-well plate corresponding to approximately 360-480 cells for each data point in total. The InCell 1000 Developer Toolbox software was used to develop an automated cell detection script to measure UCP1 signal intensity, using the nuclei and cytoplasm detection algorithms. As a readout, total intensity of UCP1 signal within the cell was used, normalized to cell number.
With `COc1cc2c(c(OC)c1OC)-c1ccc(OC)c(=O)cc1[C@@H](NC(C)=O)CC2` [Colchicine], the “UCP1 protein signal (IHC), differentiation of brown adipocyte progenitors into brown adipocytes” value is listed as “identified using this technique”. With `NC(N)=Nc1nc(CSCCC(N)=NS(N)(=O)=O)cs1` [Famotidine], the “UCP1 protein signal (IHC), differentiation of brown adipocyte progenitors into brown adipocytes” value is “identified using this technique”. Same read-out and setting: the entry for `N=C(N)NC(=O)Cc1c(Cl)cccc1Cl` [Guanfacine hydrochloride] is “identified using this technique”.

For the molecule `CN(C)C(=N)N=C(N)N` [Metformin], the “UCP1 protein signal (IHC), differentiation of brown adipocyte progenitors into brown adipocytes” value is “identified using this technique”. On to `COC(=O)[C@H]1[C@H]2C[C@@H]3c4[nH]c5cc(OC)ccc5c4CCN3C[C@H]2C[C@@H](OC(=O)c2cc(OC)c(OC)c(OC)c2)[C@@H]1OC` [Reserpine], for which the “UCP1 protein signal (IHC), differentiation of brown adipocyte progenitors into brown adipocytes” value was “identified using this technique”.
